Target: HER2YVMA (Homo sapiens, UniProt P04626, INS775YVMA)
Assay: HER2 signaling (pHER2) in Hek293-HER2YVMA cells
Format: cell-based
Set-up: expressed in transfected cells; host or cells: HEK293 (pool), Ba/F3 (clones), BEAS2B (clones); lentiviral vector pCDH-CMV-MCS-EF1-Neo
Settings: 1.5 hr compound, 1% FBS, read-out: HEKYVMA pHER2 EC50
Summary of the method: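 Lentivirally transduced HER2YVMA lines (HEK293 pool; BEAS2B clone) treated 1.5 h at 37 °C in 1% FBS medium with compound at 0.0005–1.1 μM. Lysates read by MSD immunoassay for pHER2 (Tyr1248) normalized to total HER2, as % DMSO control; EC50 from variable-slope sigmoidal fit.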

HER2YVMA, sequence (P04626 with tags, fused parts or gaps INS775YVMA): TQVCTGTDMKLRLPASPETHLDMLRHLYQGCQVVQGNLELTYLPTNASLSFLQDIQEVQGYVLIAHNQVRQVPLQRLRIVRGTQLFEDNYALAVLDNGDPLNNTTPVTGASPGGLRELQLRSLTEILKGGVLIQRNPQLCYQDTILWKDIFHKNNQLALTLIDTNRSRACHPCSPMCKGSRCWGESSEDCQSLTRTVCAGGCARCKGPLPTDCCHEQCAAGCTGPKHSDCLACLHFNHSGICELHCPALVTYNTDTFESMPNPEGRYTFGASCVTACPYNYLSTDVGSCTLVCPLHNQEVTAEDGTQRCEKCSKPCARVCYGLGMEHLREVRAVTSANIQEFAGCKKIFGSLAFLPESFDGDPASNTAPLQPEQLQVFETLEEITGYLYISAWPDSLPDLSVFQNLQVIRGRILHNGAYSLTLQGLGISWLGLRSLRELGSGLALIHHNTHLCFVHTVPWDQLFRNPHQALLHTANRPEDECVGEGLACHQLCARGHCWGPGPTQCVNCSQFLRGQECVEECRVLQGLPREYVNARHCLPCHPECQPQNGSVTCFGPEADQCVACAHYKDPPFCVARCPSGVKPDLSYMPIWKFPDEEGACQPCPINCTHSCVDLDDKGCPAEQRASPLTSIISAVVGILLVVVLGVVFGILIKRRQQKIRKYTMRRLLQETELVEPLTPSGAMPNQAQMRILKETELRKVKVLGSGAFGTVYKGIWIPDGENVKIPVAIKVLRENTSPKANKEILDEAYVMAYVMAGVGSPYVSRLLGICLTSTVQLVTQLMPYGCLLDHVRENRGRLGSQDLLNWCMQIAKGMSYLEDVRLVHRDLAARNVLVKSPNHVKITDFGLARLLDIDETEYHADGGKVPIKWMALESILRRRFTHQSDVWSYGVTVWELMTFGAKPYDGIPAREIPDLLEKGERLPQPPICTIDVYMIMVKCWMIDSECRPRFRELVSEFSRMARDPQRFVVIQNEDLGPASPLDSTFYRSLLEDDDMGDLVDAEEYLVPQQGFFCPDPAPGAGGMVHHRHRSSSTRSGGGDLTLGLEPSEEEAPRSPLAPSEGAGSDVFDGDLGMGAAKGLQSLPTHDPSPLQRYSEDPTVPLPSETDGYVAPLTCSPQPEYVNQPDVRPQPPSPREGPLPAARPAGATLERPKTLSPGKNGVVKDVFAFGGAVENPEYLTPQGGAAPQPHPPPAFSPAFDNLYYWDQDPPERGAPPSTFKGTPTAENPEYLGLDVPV

SMILES | EC50 [nM]
Cc1ccc(Oc2ccc(Nc3ncnc4sc5c(c34)C(C)CN(C(=O)C=CCN(C)C)C5)cc2C)cn1 (single isomer, unassigned) [Compound 105] | < 100
Cc1ccc(Oc2ccc(Nc3ncnc4sc5c(c34)C(C)CN(C(=O)C=CCN(C)C)C5)cc2C)cn1 (single isomer, unassigned) [Compound 106] | < 100
Cc1cc(Nc2ncnc3sc4c(c23)CCN(C(=O)/C=C/CN(C)C)C4)ccc1Oc1ccc2ncnn2c1 [Compound 3, (E)-1-(4-((4-([1,2,4]triazolo[1,5-a]pyridin-6-yloxy)-3-methylphenyl)amino)-5,8-dihydropyrido[4′,3′:4,5]thieno[2,3-d]pyrimidin-7(6H)-yl)-4-(dimethylamino)but-2-en-1-one] | 100 to 350
C=CC(=O)N1CCc2c(sc3ncnc(Nc4ccc(Oc5ccc6ncnn6c5)c(Cl)c4)c23)C1 [Compound 4, 1-(4-((4-([1,2,4]triazolo[1,5-a]pyridin-6-yloxy)-3-chlorophenyl)amino)-5,8-dihydropyrido[4′,3′:4,5]thieno[2,3-d]pyrimidin-7(6H)-yl)prop-2-en-1-one] | < 100
CN(C)C/C=C/C(=O)N1CCc2c(sc3ncnc(Nc4ccc(Oc5ccc6ncnn6c5)c(Cl)c4)c23)C1 [Compound 5, (E)-1-(4-((4-([1,2,4]triazolo[1,5-a]pyridin-6-yloxy)-3-chlorophenyl)amino)-5,8-dihydropyrido[4′,3′:4,5]thieno[2,3-d]pyrimidin-7(6H)-yl)-4-(dimethylamino)but-2-en-1-one] | < 100
Cc1cc(Nc2ncnc3sc4c(c23)CCN(C(=O)/C=C/CN2CC3CCC(C3)C2)C4)ccc1Oc1ccc2ncnn2c1 [Compound 20] | < 100
Cc1ncc(Oc2ccc(Nc3ncnc4sc5c(c34)CCN(C(=O)/C=C/CN(C)C)C5)cc2C)cn1 [Compound 21, (E)-4-(dimethylamino)-1-(4-((3-methyl-4-((2-methylpyrimidin-5-yl)oxy)phenyl)amino)-5,8-dihydropyrido[4′,3′:4,5]thieno[2,3-d]pyrimidin-7(6H)-yl)but-2-en-1-one] | < 100
Cc1cc(Nc2ncnc3sc4c(c23)CCN(C(=O)/C=C/CN(C)C)C4)ccc1Oc1ccc2[nH]ncc2c1 [Compound 22, (E)-1-(4-((4-((1H-indazol-5-yl)oxy)-3-methylphenyl)amino)-5,8-dihydropyrido[4′,3′:4,5]thieno[2,3-d]pyrimidin-7(6H)-yl)-4-(dimethylamino)but-2-en-1-one] | < 100
Cc1cc(Nc2ncnc3sc4c(c23)CCN(C(=O)/C=C/CN(C)C)C4)ccc1Oc1ccc2cn[nH]c2c1 [Compound 23, (E)-1-(4-((4-((1H-indazol-6-yl)oxy)-3-methylphenyl)amino)-5,8-dihydropyrido[4′,3′:4,5]thieno[2,3-d]pyrimidin-7(6H)-yl)-4-(dimethylamino)but-2-en-1-one] | < 100
Cc1ccc(Oc2ccc(Nc3ncnc4sc5c(c34)CCN(C(=O)/C=C/CN3CC4CC3CO4)C5)cc2C)cn1 (centres unmarked) [Compound 26] | < 100
Cc1ccc(Oc2ccc(Nc3ncnc4sc5c(c34)CCN(C(=O)/C=C/CN(C)C(C)(C)C)C5)cc2C)cn1 [Compound 33] | < 100
Cc1ccc(Oc2ccc(Nc3ncnc4sc5c(c34)CCN(C(=O)/C=C/CN3CC4C(CO)C4C3)C5)cc2C)cn1 (centres unmarked) [Compound 34] | < 100
Cc1ccc(Oc2ccc(Nc3ncnc4sc5c(c34)CCN(C(=O)/C=C/CN(CCO)CCO)C5)cc2C)cn1 [Compound 37] | 100 to 350
Cc1ccc(Oc2ccc(Nc3ncnc4sc5c(c34)CCN(C(=O)/C=C/CNC3COC3)C5)cc2C)cn1 [Compound 38] | < 100
CNC(=O)CNC/C=C/C(=O)N1CCc2c(sc3ncnc(Nc4ccc(Oc5ccc(C)nc5)c(C)c4)c23)C1 [Compound 39] | 100 to 350
Cc1ccc(Oc2ccc(Nc3ncnc4sc5c(c34)CCN(C(=O)/C=C/CNC3CC3)C5)cc2C)cn1 [Compound 40] | < 100
Cc1ccc(Oc2ccc(Nc3ncnc4sc5c(c34)CCN(C(=O)/C=C/CN3CCCC3C(N)=O)C5)cc2C)cn1 (centres unmarked) [Compound 41] | < 100
Cc1ccc(Oc2ccc(Nc3ncnc4sc5c(c34)CCN(C(=O)/C=C/CN3CCCOCC3)C5)cc2C)cn1 [Compound 42] | < 100
Cc1ccc(Oc2ccc(Nc3ncnc4sc5c(c34)CCN(C(=O)/C=C/CN3CC(O)CO3)C5)cc2C)cn1 (centres unmarked) [Compound 43] | 350 to 1000

SMILES | EC50 [nM]
Cc1ccc(Oc2ccc(Nc3ncnc4sc5c(c34)CCN(C(=O)/C=C/CN3C4CCC3CC4)C5)cc2C)cn1 [Compound 44] | < 100
Cc1ccc(Oc2ccc(Nc3ncnc4sc5c(c34)CCN(C(=O)/C=C/CNCCS(C)(=O)=O)C5)cc2C)cn1 [Compound 45] | < 100
CCN1CCN(C/C=C/C(=O)N2CCc3c(sc4ncnc(Nc5ccc(Oc6ccc(C)nc6)c(C)c5)c34)C2)CC1 [Compound 46] | < 100
Cc1ccc(Oc2ccc(Nc3ncnc4sc5c(c34)CCN(C(=O)/C=C/CNC3CCOC3)C5)cc2C)cn1 (centres unmarked) [Compound 47] | < 100
Cc1ccc(Oc2ccc(Nc3ncnc4sc5c(c34)CCN(C(=O)/C=C/CNCC3CN(C)CCO3)C5)cc2C)cn1 (centres unmarked) [Compound 48] | < 100
Cc1ccc(Oc2ccc(Nc3ncnc4sc5c(c34)CCN(C(=O)/C=C/CNCc3cc(C)n[nH]3)C5)cc2C)cn1 [Compound 49] | < 100
CC(=O)N1CCN(C/C=C/C(=O)N2CCc3c(sc4ncnc(Nc5ccc(Oc6ccc(C)nc6)c(C)c5)c34)C2)CC1 [Compound 51] | 100 to 350
Cc1ccc(Oc2ccc(Nc3ncnc4sc5c(c34)CCN(C(=O)/C=C/CNCc3ccsc3)C5)cc2C)cn1 [Compound 52] | < 100
Cc1ccc(Oc2ccc(Nc3ncnc4sc5c(c34)CCN(C(=O)/C=C/CN3CC(O)C3)C5)cc2C)cn1 [Compound 53] | 100 to 350
Cc1ccc(Oc2ccc(Nc3ncnc4sc5c(c34)CCN(C(=O)/C=C/CNC3CCC3)C5)cc2C)cn1 [Compound 54] | < 100
Cc1ccc(Oc2ccc(Nc3ncnc4sc5c(c34)CCN(C(=O)/C=C/CN3CC=CCC3)C5)cc2C)cn1 [Compound 55] | < 100
CON(C)C/C=C/C(=O)N1CCc2c(sc3ncnc(Nc4ccc(Oc5ccc(C)nc5)c(C)c4)c23)C1 [Compound 56] | 350 to 1000
Cc1ccc(Oc2ccc(Nc3ncnc4sc5c(c34)CCN(C(=O)/C=C/CN3CC4(C3)CS(=O)(=O)C4)C5)cc2C)cn1 [Compound 57] | < 100
Cc1ccc(Oc2ccc(Nc3ncnc4sc5c(c34)CCN(C(=O)/C=C/CN3CCN4C(=O)CCC4C3)C5)cc2C)cn1 (centres unmarked) [Compound 58] | 350 to 1000
COCCN1CCN(C/C=C/C(=O)N2CCc3c(sc4ncnc(Nc5ccc(Oc6ccc(C)nc6)c(C)c5)c34)C2)CC1 [Compound 59] | < 100
Cc1ccc(Oc2ccc(Nc3ncnc4sc5c(c34)CCN(C(=O)/C=C/CN3CCn4cc(C(F)(F)F)nc4C3)C5)cc2C)cn1 [Compound 61] | 350 to 1000
Cc1ccc(Oc2ccc(Nc3ncnc4sc5c(c34)CCN(C(=O)/C=C/CN3CCC(n4ccnc4)CC3)C5)cc2C)cn1 [Compound 62] | 100 to 350
Cc1cc(Nc2ncnc3sc4c(c23)CCN(C(=O)/C=C/CN(C)C)C4)ccc1Oc1cccc(B(O)O)c1 [Compound 64, (E)-(3-(4-((7-(4-(dimethylamino)but-2-enoyl)-5,6,7,8-tetrahydropyrido[4′,3′:4,5]thieno[2,3-d]pyrimidin-4-yl)amino)-2-methylphenoxy)phenyl)boronic acid] | < 100
Cc1ccc(Oc2ccc(Nc3ncnc4sc5c(c34)CCN(C(=O)/C=C/CNCCO)C5)cc2C)cn1 [Compound 65] | < 100

Source: patent US20240391931A1 (Bristol-Myers Squibb Company, priority 2021, published 2024)
